The values below come from ChEMBL document CHEMBL2010728, “Bicyclic benzofuran and indole-based salicylic acids as protein tyrosine phosphatase inhibitors” (Bioorg Med Chem, 2012).

Test [1] has as its target Tyrosine-protein phosphatase YopH (Yersinia pseudotuberculosis serotype I (strain IP32953), UniProt P08538). The test can be described thus: Inhibition of Yersinia pseudotuberculosis YopH.
Test [2] deals with T1, Tyrosine-protein phosphatase non-receptor type 1 (Homo sapiens, UniProt P18031).
T1 sequence (P18031 whole entry): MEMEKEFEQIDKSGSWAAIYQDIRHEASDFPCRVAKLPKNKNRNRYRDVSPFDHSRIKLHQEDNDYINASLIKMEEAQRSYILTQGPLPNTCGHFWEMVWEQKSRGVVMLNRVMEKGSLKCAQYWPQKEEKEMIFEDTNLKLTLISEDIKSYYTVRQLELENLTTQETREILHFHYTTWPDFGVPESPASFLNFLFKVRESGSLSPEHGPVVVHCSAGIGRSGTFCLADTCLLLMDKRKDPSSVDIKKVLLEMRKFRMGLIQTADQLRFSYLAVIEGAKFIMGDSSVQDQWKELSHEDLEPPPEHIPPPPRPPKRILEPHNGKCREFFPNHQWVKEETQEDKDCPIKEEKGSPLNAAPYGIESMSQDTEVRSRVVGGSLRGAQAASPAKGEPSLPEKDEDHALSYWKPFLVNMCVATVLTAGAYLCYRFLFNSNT
The test can be described thus: Inhibition of PTP1B expressed in Escherichia coli BL21 (DE3) cells using p-nitrophenyl phosphate as substrate after 2 to 3 mins by spectrophotometric analysis.

The target in test [3] is T2, Tyrosine-protein phosphatase non-receptor type 1 (Homo sapiens) (UniProt P18031).
T2 sequence (whole entry): T1 sequence (P18031 whole entry)
The test can be described thus: Ratio of Ki for salicylic acid to compound Ki for PTP1B.

Test [4] can be described thus: Selectivity ratio of Ki for PTP to Ki for PTP1B.
The species entered for test [5] is Homo sapiens. The test can be described thus: Selectivity ratio of Ki for human recombinant TC-PTP to Ki for PTP1B.

Molecules are shown by their SMILES.

Tyrosine-protein phosphatase YopH, sequence (P08538 whole entry): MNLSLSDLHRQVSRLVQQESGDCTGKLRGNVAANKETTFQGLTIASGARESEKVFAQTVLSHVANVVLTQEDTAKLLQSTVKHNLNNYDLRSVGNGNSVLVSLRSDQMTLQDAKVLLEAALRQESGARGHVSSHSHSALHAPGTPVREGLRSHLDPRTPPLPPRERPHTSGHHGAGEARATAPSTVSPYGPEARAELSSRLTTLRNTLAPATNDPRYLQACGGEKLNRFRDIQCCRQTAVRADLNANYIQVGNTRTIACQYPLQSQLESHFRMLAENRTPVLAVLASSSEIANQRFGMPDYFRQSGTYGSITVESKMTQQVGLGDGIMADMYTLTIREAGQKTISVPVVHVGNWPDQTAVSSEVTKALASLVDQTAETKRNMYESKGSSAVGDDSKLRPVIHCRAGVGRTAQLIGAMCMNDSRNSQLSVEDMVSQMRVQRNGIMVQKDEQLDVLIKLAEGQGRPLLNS

Consider `O=C(O)c1cc2cc(O)ccc2cc1O`, for which half-maximal inhibition in test [1] (IC50) was put at 60 µM.

As to `O=C(O)c1cc2cccc(O)c2cc1O`, in test [1], it took 18 µM to reach half-maximal inhibition (IC50).

Consider `O=C(O)c1cc(NCn2c(=S)[nH]c3ccccc32)ccc1O`, for which the affinity in test [2] corresponds to a Ki of 61 µM. As to `O=C(O)c1cc(NCn2c(S)nc3ccccc32)ccc1O`, the Ratio Ki in test [3] stood at 320. For the compound `N[C@@H](Cc1ccc(C(F)(F)P(=O)(O)O)cc1)C(=O)O` [PHOSPHONODIFLUOROMETHYL PHENYLALANINE], the Ratio Ki in test [4] turned out to be 1000. The Ki (as a rule, a measure of affinity in units of concentration, obtained from inhibition or displacement) in test [2] is 0.0024 µM. For the same compound, the Ratio in test [5] is 10. `O=C(O)c1ccccc1O` [SALICYLIC ACID]: the results for the Ki in test [2] and in test [1] were 19400 µM and 1000 µM, respectively.
